How the values were obtained:
[1] = biological target: T1, MCR-4 (Homo sapiens, UniProt P32245); test: Melanocortin receptor binding assay, competition with 125I-HP 467, HEK 293 cells expressing hMCR-4; details: inhibition of binding of 125I-HP 467, HEK 293 cells expressing MCR-4, TRG 2414 library; for IC50: read-out: MC-4 IC50
T1 construct: expressed in transfected cells; host or cells: HEK 293
Summary of the method: (§1)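 Intact-cell competition binding, 2.5 hr at 37 °C, in PBS/10% calf serum/1 mM CaCl2; hMCR-4 cells at 4×10^3 per tube, hMCR-1 cells at 2×10^4 per tube. Filtration on BSA/CaCl2-soaked GF/B, cold 50 mM Tris pH 7.4 washes, scintillation count.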

[2] = biological target: T2, MCR-1 (Homo sapiens, UniProt Q01726); test: Melanocortin receptor binding assay, competition with 125I-HP 467, HEK 293 cells expressing hMCR-1; details: inhibition of binding of 125I-HP 467, HEK 293 cells expressing MCR-1, TRG 2414 library; for IC50: read-out: MC-1 IC50
T2 construct: expressed in transfected cells; host or cells: HEK 293
T2 sequence (Q01726 whole entry): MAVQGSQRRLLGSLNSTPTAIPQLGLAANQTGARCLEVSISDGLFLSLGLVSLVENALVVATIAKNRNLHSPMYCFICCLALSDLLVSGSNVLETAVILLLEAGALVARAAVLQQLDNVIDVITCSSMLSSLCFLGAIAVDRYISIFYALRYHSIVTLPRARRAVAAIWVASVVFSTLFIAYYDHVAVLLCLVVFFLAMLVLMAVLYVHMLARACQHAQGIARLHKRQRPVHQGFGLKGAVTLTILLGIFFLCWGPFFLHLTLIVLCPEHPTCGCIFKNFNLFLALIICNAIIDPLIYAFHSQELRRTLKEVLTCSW
Summary of the method: as §1

T1 sequence (P32245 whole entry): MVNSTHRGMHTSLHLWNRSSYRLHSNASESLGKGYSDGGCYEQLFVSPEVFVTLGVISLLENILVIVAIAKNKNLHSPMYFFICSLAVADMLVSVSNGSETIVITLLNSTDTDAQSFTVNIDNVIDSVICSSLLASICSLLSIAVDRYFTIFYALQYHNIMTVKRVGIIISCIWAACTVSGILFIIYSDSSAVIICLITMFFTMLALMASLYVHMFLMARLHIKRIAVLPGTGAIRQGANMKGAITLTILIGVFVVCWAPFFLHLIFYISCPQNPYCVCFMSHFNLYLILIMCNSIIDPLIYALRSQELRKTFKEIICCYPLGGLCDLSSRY

| MC-4 IC50 [1] | IC50 [2] | MC-1 IC50 [2] | IC50 [1] | Compound |
| --- | --- | --- | --- | --- |
| no fit | 17.6 µM |  |  | NC[C@H](CCCCN1Cc2ccccc2C(CNCc2ccccc2C(F)(F)F)C1c1ccc(Oc2ccccc2)cc1)NCc1ccccc1 (stereo partly shown) [TRG 2414-123] |
| no fit |  | no fit |  | CC(C)Cc1ccc(C(C)CNC(CN)CCCCN2Cc3ccccc3C(CNCc3ccccc3C(F)(F)F)C2c2ccc(Oc3ccccc3)cc2)cc1 (stereo not shown) [TRG 2414-124] |
|  | 0.7 µM |  | 8.08 µM | CCOc1ccccc1CNCC1c2ccccc2CN(CCCCC(N)CN)C1c1ccc(Oc2ccccc2)cc1 (stereo not shown) [TRG 2414-125] |
|  | 6.43 µM |  | 18.7 µM | CCOc1ccccc1CNCC1c2ccccc2CN(CCCCC(CN)NCCc2ccccc2)C1c1ccc(Oc2ccccc2)cc1 (stereo not shown) [TRG 2414-126] |
|  | 2.14 µM |  | 26.8 µM | CCOc1ccccc1CNCC1c2ccccc2CN(CCCCC(CN)NCc2ccccc2)C1c1ccc(Oc2ccccc2)cc1 (stereo not shown) [TRG 2414-127] |
|  | 4.63 µM |  | 13.4 µM | COc1ccccc1CCNCC1c2ccccc2CN(CCCCC(CN)NCCc2ccccc2)C1c1ccc(Oc2ccccc2)cc1 (stereo not shown) [TRG 2414-130] |
|  | 1.65 µM |  | 14.6 µM | COc1ccccc1CCNCC1c2ccccc2CN(CCCCC(CN)NCc2ccccc2)C1c1ccc(Oc2ccccc2)cc1 (stereo not shown) [TRG 2414-131] |
| no fit | 27.4 µM |  |  | COc1ccccc1CCNCC1c2ccccc2CN(CCCCC(CN)NCC(C)c2ccc(CC(C)C)cc2)C1c1ccc(Oc2ccccc2)cc1 (stereo not shown) [TRG 2414-132] |
|  | 5.8 µM |  | 15.9 µM | NCC(N)CCCCN1Cc2ccccc2C(CNCCc2cccc(Cl)c2)C1c1ccc(Oc2ccccc2)cc1 (stereo not shown) [TRG 2414-133] |
| no fit | 40.2 µM |  |  | NCC(CCCCN1Cc2ccccc2C(CNCCc2cccc(Cl)c2)C1c1ccc(Oc2ccccc2)cc1)NCCc1ccccc1 (stereo not shown) [TRG 2414-134] |
|  | 10.1 µM |  | 46 µM | NCC(CCCCN1Cc2ccccc2C(CNCCc2cccc(Cl)c2)C1c1ccc(Oc2ccccc2)cc1)NCc1ccccc1 (stereo not shown) [TRG 2414-135] |
| no fit |  | no fit |  | CC(C)Cc1ccc(C(C)CNC(CN)CCCCN2Cc3ccccc3C(CNCCc3cccc(Cl)c3)C2c2ccc(Oc3ccccc3)cc2)cc1 (stereo not shown) [TRG 2414-136] |
|  | 1.21 µM |  | 5.26 µM | COc1cccc(CNCC2c3ccccc3CN(CCCCC(N)CN)C2c2ccc(Oc3ccccc3)cc2)c1 (stereo not shown) [TRG 2414-137] |
|  | 10.6 µM |  | 16.6 µM | COc1cccc(CNCC2c3ccccc3CN(CCCCC(CN)NCCc3ccccc3)C2c2ccc(Oc3ccccc3)cc2)c1 (stereo not shown) [TRG 2414-138] |
|  | 0.788 µM |  | 12.6 µM | COc1cccc(CNCC2c3ccccc3CN(CCCCC(CN)NCc3ccccc3)C2c2ccc(Oc3ccccc3)cc2)c1 (stereo not shown) [TRG 2414-139] |
| no fit | 37 µM |  |  | COc1cccc(CNCC2c3ccccc3CN(CCCCC(CN)NCC(C)c3ccc(CC(C)C)cc3)C2c2ccc(Oc3ccccc3)cc2)c1 (stereo not shown) [TRG 2414-140] |
|  | 2.04 µM |  | 4.21 µM | COc1ccc(CNCC2c3ccccc3CN(CCCCC(N)CN)C2c2ccc(Oc3ccccc3)cc2)cc1 (stereo not shown) [TRG 2414-141] |
|  | 4.38 µM |  | 11.3 µM | COc1ccc(CNCC2c3ccccc3CN(CCCCC(CN)NCCc3ccccc3)C2c2ccc(Oc3ccccc3)cc2)cc1 (stereo not shown) [TRG 2414-142] |
|  | 2.35 µM |  | 14 µM | COc1ccc(CNCC2c3ccccc3CN(CCCCC(CN)NCc3ccccc3)C2c2ccc(Oc3ccccc3)cc2)cc1 (stereo not shown) [TRG 2414-143] |
| no fit |  | no fit |  | COc1ccc(CNCC2c3ccccc3CN(CCCCC(CN)NCC(C)c3ccc(CC(C)C)cc3)C2c2ccc(Oc3ccccc3)cc2)cc1 (stereo not shown) [TRG 2414-144] |
|  | 2.05 µM |  | 3.47 µM | COc1ccc(CCNCC2c3ccccc3CN(CCCCC(N)CN)C2c2ccc(Oc3ccccc3)cc2)cc1 (stereo not shown) [TRG 2414-145] |

| MC-4 IC50 [1] | IC50 [2] | MC-1 IC50 [2] | IC50 [1] | Compound |
| --- | --- | --- | --- | --- |
|  | 1.63 µM |  | 8.5 µM | COc1ccc(CCNCC2c3ccccc3CN(CCCCC(CN)NCc3ccccc3)C2c2ccc(Oc3ccccc3)cc2)cc1 (stereo not shown) [TRG 2414-147] |
| no fit |  | no fit |  | COc1ccc(CCNCC2c3ccccc3CN(CCCCC(CN)NCC(C)c3ccc(CC(C)C)cc3)C2c2ccc(Oc3ccccc3)cc2)cc1 (stereo not shown) [TRG 2414-148] |
|  | 2.86 µM |  | 2.69 µM | NCC(N)CCCCN1Cc2ccccc2C(CNCc2ccccc2)C1c1ccc(Oc2ccccc2)cc1 (stereo not shown) [TRG 2414-149] |
|  | 9.42 µM |  | 16.3 µM | NCC(CCCCN1Cc2ccccc2C(CNCc2ccccc2)C1c1ccc(Oc2ccccc2)cc1)NCCc1ccccc1 (stereo not shown) [TRG 2414-150] |
|  | 1.81 µM |  | 14.7 µM | NCC(CCCCN1Cc2ccccc2C(CNCc2ccccc2)C1c1ccc(Oc2ccccc2)cc1)NCc1ccccc1 (stereo not shown) [TRG 2414-151] |
| no fit |  | no fit |  | CC(C)Cc1ccc(C(C)CNC(CN)CCCCN2Cc3ccccc3C(CNCc3ccccc3)C2c2ccc(Oc3ccccc3)cc2)cc1 (stereo not shown) [TRG 2414-152] |
|  | 0.772 µM |  | 4.09 µM | NCC(N)CCCCN1Cc2ccccc2C(CNC2CCCCCC2)C1c1ccc(Oc2ccccc2)cc1 (stereo not shown) [TRG 2414-153] |
|  | 4.85 µM |  | 7.52 µM | NCC(CCCCN1Cc2ccccc2C(CNC2CCCCCC2)C1c1ccc(Oc2ccccc2)cc1)NCCc1ccccc1 (stereo not shown) [TRG 2414-154] |
|  | 2.03 µM |  | 8.94 µM | NCC(CCCCN1Cc2ccccc2C(CNC2CCCCCC2)C1c1ccc(Oc2ccccc2)cc1)NCc1ccccc1 (stereo not shown) [TRG 2414-155] |
| no fit | 18.6 µM |  |  | CC(C)Cc1ccc(C(C)CNC(CN)CCCCN2Cc3ccccc3C(CNC3CCCCCC3)C2c2ccc(Oc3ccccc3)cc2)cc1 (stereo not shown) [TRG 2414-156] |
|  | 1.11 µM |  | 4.11 µM | NCC(N)CCCCN1Cc2ccccc2C(CNC2CCCCC2)C1c1ccc(Oc2ccccc2)cc1 (stereo not shown) [TRG 2414-157] |
|  | 1.4 µM |  | 9.82 µM | NCC(CCCCN1Cc2ccccc2C(CNC2CCCCC2)C1c1ccc(Oc2ccccc2)cc1)NCc1ccccc1 (stereo not shown) [TRG 2414-159] |
| no fit | 17.5 µM |  |  | CC(C)Cc1ccc(C(C)CNC(CN)CCCCN2Cc3ccccc3C(CNC3CCCCC3)C2c2ccc(Oc3ccccc3)cc2)cc1 (stereo not shown) [TRG 2414-160] |
|  | 7.98 µM |  | 11 µM | CCCOc1ccc(C2C(CNCc3ccccc3C(F)(F)F)c3ccccc3CN2CCCCC(N)CN)cc1 (stereo not shown) [TRG 2414-161] |
|  | 2.73 µM |  | 22.6 µM | CCCOc1ccc(C2C(CNCc3ccccc3C(F)(F)F)c3ccccc3CN2CCCCC(CN)NCc2ccccc2)cc1 (stereo not shown) [TRG 2414-163] |
| no fit |  | no fit |  | CCCOc1ccc(C2C(CNCc3ccccc3C(F)(F)F)c3ccccc3CN2CCCCC(CN)NCC(C)c2ccc(CC(C)C)cc2)cc1 (stereo not shown) [TRG 2414-164] |
|  | 6.82 µM |  | 8.58 µM | CCCOc1ccc(C2C(CNCc3ccccc3OCC)c3ccccc3CN2CCCCC(CN)NCCc2ccccc2)cc1 (stereo not shown) [TRG 2414-166] |
|  | 2.16 µM |  | 7.03 µM | CCCOc1ccc(C2C(CNCc3ccccc3OCC)c3ccccc3CN2CCCCC(CN)NCc2ccccc2)cc1 (stereo not shown) [TRG 2414-167] |
|  | 21.8 µM |  | 44.4 µM | CCCOc1ccc(C2C(CNCc3ccccc3OCC)c3ccccc3CN2CCCCC(CN)NCC(C)c2ccc(CC(C)C)cc2)cc1 (stereo not shown) [TRG 2414-168] |
|  | 0.518 µM |  | 5.34 µM | CCCOc1ccc(C2C(CNCCc3ccccc3OC)c3ccccc3CN2CCCCC(N)CN)cc1 (stereo not shown) [TRG 2414-169] |

Reference: US6608082B1, “Treatment of erectile dysfunction using isoquinoline compound melanocortin receptor ligands” (Lion Bioscience AG, priority 1998, dated 2003)
